Source: patent US20090209570A1 (priority 2001, published 2009)
Structures can show the parent of a compound that is named as a salt. Where two headings read alike, the source gives them in different places.

Legend:
μ-opioid receptors = biological target: T1, μ-opioid receptors (Rattus norvegicus, UniProt P33535); assay: Opioid receptor binding studies with [3H]DAMGO on rat's brain homogenisates
T1 construct: from tissue; host or cells: rat brain homogenate

rats = assay: Analgesia test (rat tail flick test); format: in vivo; conditions: for sc/icv: ratio of tail flick ED50 sc to icv; for Analgesic effect (in percent) after 10 minutes / Analgesic effect (in percent) after 20 minutes / Analgesic effect (in percent) after 30 minutes / Analgesic effect (in percent) after 60 minutes / Analgesic effect (in percent) after 120 minutes / Analgesic effect (in percent) after 180 minutes: 3 0.5 μg/rat, 4 0.25 μg/rat, rats 120 g; for Analgesic effect (in percent) after 10 minutes / Analgesic effect (in percent) after 20 minutes / Analgesic effect (in percent) after 30 minutes / Analgesic effect (in percent) after 60 minutes / Analgesic effect (in percent) after 120 minutes: morphine 50 μg/rat
Experimental: A test on rats was applied (“rat tail flick test”). This test was carried out as previously described (Zs. Fürst et al., Eur. J. Pharmacol. 1993, Vol. 236, pp. 209-215).

in vivo = conditions: rat
anaesthetised rats = conditions: rat, in vivo; for respiratory depression at analgesic doses (in words): sc
[1] = tested on: carrageen-induced hyperalgesia on the right hind paw of rats; assay: Randall-Selitto test (hind-paw withdrawal latency, mechanical stimulation); format: in vivo, rat
Experimental: The Randall-Selitto Test (L. O. Randall and J. J. Selitto, Arch. Int. Pharmacodyn. 1957, Vol. 111, pp. 409-419) was applied to study the analgesic effect on carrageen-induced hyperalgesia on the right hind paw of rats. In this way the “hind-paw withdrawal latency” (HWL; latency period for withdrawing the right hind paw) with mechanical stimulation (e.g. I. Bileviciute-Ljungar and M. Spetea, Br. J. Pharmcol. 2001, Vol. 132, pp. 252-258) is measured.

[2] = tested on: rats with ligations around the ischias nerve; assay: Von Frey test (mechanical allodynia); format: in vivo, rat
Experimental: (§1) The tests involve models to test the effect of a substance on neuropathic pain.
(§2) For both tests ligations were applied around the ischias nerve (G. J. Bennett and Y. K. Xie, Pain 1988, Vol. 33, 87-107).
A slight pressure (2 to 60 g) was exerted on the skin of the hind paw of the rats (200-250 g) using Von Frey hairs and the latency period of withdrawal of the hind paw was studied at various time intervals (5, 15, 30 and 60 minutes after the application of the substance). The substance to be investigated was applied via intraplant (ipl).

[3] = tested on: rats with ligations around the ischias nerve; assay: Cold water allodynia test (thermal allodynia); format: in vivo, rat
Experimental: as §1, §2
Thermal stimulation (cold water) was used to initiate withdrawal of the hind paw of the rats (200-300 g). After 5, 15 and 30 min (after application of the substance) the latency period of the withdrawal of the hind paw was studied (J. C. Hunter et al., Eur. J. Pharmacol., 1997, Vol. 324, 153-160). The substances to be investigated were applied via intraplant (ipl).

[4] = central, rat tail flick test, intracerebroventricular application, read-out: ED50 (μg/kg, icv)
[5] = sc, rat tail flick test, subcutaneous application, read-out: ED50 (μg/kg, sc)
[6] = 20 μg/kg, subcutaneous application
[7] = 100 μg/rat after subcutaneous application
[8] = peripherally acting opioid antagonist

T1 sequence (P33535 whole entry): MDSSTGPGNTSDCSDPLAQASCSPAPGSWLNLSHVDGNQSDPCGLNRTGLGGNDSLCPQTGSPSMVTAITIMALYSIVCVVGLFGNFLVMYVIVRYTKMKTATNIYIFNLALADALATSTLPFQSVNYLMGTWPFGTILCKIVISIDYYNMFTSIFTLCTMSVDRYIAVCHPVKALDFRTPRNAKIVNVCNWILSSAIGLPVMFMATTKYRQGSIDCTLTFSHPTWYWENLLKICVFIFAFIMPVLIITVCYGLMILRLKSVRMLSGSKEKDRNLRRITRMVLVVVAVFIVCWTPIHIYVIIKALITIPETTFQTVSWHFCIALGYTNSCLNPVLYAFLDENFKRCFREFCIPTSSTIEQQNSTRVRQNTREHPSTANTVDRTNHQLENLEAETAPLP

CO[C@@]12CC[C@H](NCC(=O)OC(C)(C)C)[C@@H]3Oc4c(O)ccc5c4[C@@]31CCN(C)[C@@H]2C5 [Compound 1, (4,5α-epoxy-3-hydroxy-14β-methoxy-17-methylmorphinan-6α-ylamino)-acetic acid-tert.-butylester]
Ki (μ-opioid receptors): 0.48 nM

CO[C@@]12CCC(NCC(=O)OC(C)(C)C)[C@@H]3Oc4c(O)ccc5c4[C@@]31CCN(C)C2C5 (stereo in doubt) [Compound 2, (4,5α-epoxy-3-hydroxy-14β-methoxy-17-methylmorphinan-6β-ylamino)-acetic acid-tert.-butylester]
Ki (μ-opioid receptors): 1.3 nM

CCOC(=O)CN[C@H]1CC[C@@]2(OC)[C@H]3Cc4ccc(O)c5c4[C@@]2(CCN3C)[C@H]1O5 [Compound 22, (4,5α-epoxy-3-hydroxy-14β-methoxy-17-methylmorphinan-6α-ylamino)-acetic acid-ethylester dihydrochloride]
Ki (μ-opioid receptors): 0.21 nM

CO[C@@]12CC[C@H](N[C@@H](C)C(=O)O)[C@@H]3Oc4c(O)ccc5c4[C@@]31CCN(C)C2C5 [Compound 7, (2′S)-2′-(4,5α-epoxy-3-hydroxy-14β-methoxy-17-methylmorphinan-6α-ylamino)-propionic acid bis(tetrafluoroborate)]
ED50 (rats; [4]): 0.75 µg/kg | analgesic activity (in words) (rats; rat tail flick test): very high analgesic activity | sc/icv (rats): 133 | ED50 (rats; [5]): 100 µg/kg

CO[C@@]12CC[C@@H](NC(=NC(=O)OC(C)(C)C)NC(=O)OC(C)(C)C)[C@@H]3Oc4c(O)ccc5c4[C@@]31CCN(C)C2C5 [Compound 16]
Ki (μ-opioid receptors; [3H]DAMGO as radio-ligand, rat's brain homogenisates, read-out: Ki (nM) (μ-receptors)): 0.61 nM

CCOC(=O)CN[C@@H]1CC[C@@]2(OC)[C@H]3Cc4ccc(O)c5c4[C@@]2(CCN3C)[C@H]1O5 (as salt: hydrochloride) [Compound 23, (4,5α-epoxy-3-hydroxy-14β-methoxy-17-methylmorphinan-6β-ylamino)-acetic acid-ethylester dihydrochloride]
melting point: > 200 °C

CO[C@@]12CC[C@H](N[C@@H](Cc3ccccc3)C(=O)O)[C@@H]3Oc4c(O)ccc5c4[C@@]31CCN(C)C2C5 [Compound 11, (2′S)-2′-(4,5α-epoxy-3-hydroxy-14β-methoxy-17-methylmorphinan-6α-ylamino)-3′-phenylpropionic acid bis(tetrafluoroborate)]
Ki (μ-opioid receptors): 0.95 nM

CO[C@@]12CC[C@@H](NC(=N)N)[C@@H]3Oc4c(O)ccc5c4[C@@]31CCN(C)[C@@H]2C5 [Compound 17, 4,5α-epoxy-6β-guanidinyl-14β-methoxy-17-methylmorphinan-3-ol dihydrochloride]
Ki (μ-opioid receptors): 0.25 nM

CO[C@@]12CC[C@@H](N)[C@@H]3Oc4c(O)ccc5c4[C@@]31CCN(C)[C@@H]2C5
melting point: > 235 °C

CN1CC[C@]23c4c5ccc(O)c4O[C@H]2[C@@H](O)C=C[C@H]3[C@H]1C5 [Morphine, morphine, reference compound]
ED50 (in vivo): 0.083 mg/kg | ED50 (in vivo; sc): 2.8 mg/kg | sc/icv (anaesthetised rats): 34 | ED50 (rats; [4]): 100 µg/kg | Analgesic effect (in percent) after 10 minutes (rats; icv): 57% | Analgesic effect (in percent) after 20 minutes (rats; icv): 91% | Analgesic effect (in percent) after 30 minutes (rats; icv): 74% | Analgesic effect (in percent) after 60 minutes (rats; icv): 59% | Analgesic effect (in percent) after 120 minutes (rats; icv): 20% | sc/icv (rats): 19 | ED50 (rats; [5]): 1900 µg/kg

CO[C@@]12CC[C@@H](NCC(=O)O)[C@@H]3Oc4c(O)ccc5c4[C@@]31CCN(C)C2C5 [Compound 4, (4,5α-epoxy-3-hydroxy-14β-methoxy-17-methylmorphinan-6β-ylamino)-acetic acid sesqui(trifluoroacetate)]
analgesic activity (rise in HWL of at least 100% taken as significant) [1, 6]: significant analgesic activity | duration of analgesic effect [1, 6]: approx. 14 hours | passage of the blood-brain barrier (concluded from naloxone methiodide antagonism) ([1]; conclusion from the Randall-Selitto test): cannot overcome the blood-brain barrier | ED50 (in vivo): 0.00042 mg/kg | ED50 (in vivo; sc): 0.5 mg/kg | respiratory depression at analgesic doses (in words) (anaesthetised rats): not able to initiate a respiratory depression | anti-allodynic activity (rise of at least 100% in latency of hind paw withdrawal taken as significant) [2, 7]: significant anti-allodynic activity | anti-allodynic effect after naloxone methiodide (ipl) [2, 8]: completely neutralise | ED50 (rats; [4]): 0.42 µg/kg | Analgesic effect (in percent) after 10 minutes (rats; icv): 61% | Analgesic effect (in percent) after 20 minutes (rats; icv): 74% | Analgesic effect (in percent) after 30 minutes (rats; icv): 76% | Analgesic effect (in percent) after 60 minutes (rats; icv): 100% | Analgesic effect (in percent) after 120 minutes (rats; icv): 100% | Analgesic effect (in percent) after 180 minutes (rats; icv): 90% | analgesic activity (in words) (rats; rat tail flick test): very high analgesic activity | times as active as morphine after intracerebroventricular application (icv) (rats; rat tail flick test, icv, relative to morphine): 238 times | times as active as morphine after subcutaneous application (sc) (rats; rat tail flick test, sc, relative to morphine): 68 times | sc/icv (rats): 67 | ED50 (rats; [5]): 28 µg/kg | anti-allodynic activity (rise of at least 100% in latency of hind paw withdrawal taken as significant) [3, 7]: significant anti-allodynic activity | anti-allodynic effect after naloxone methiodide (ipl) [3, 8]: completely neutralise

O=C(O)CN[C@@H]1CC[C@@]2(OCCCc3ccccc3)[C@H]3Cc4ccc(O)c5c4[C@@]2(CCN3CC2CC2)[C@H]1O5 [Compound 38, {17-cyclopropylmethyl-4,5α-epoxy-3-hydroxy-14β-[(3-phenylpropyl)oxy]-morphinan-6β-ylamino}acetic acid dihydrochloride]
Ki (μ-opioid receptors): 0.24 nM

CO[C@@]12CC[C@@H](N[C@@H](C)C(=O)O)[C@@H]3Oc4c(O)ccc5c4[C@@]31CCN(C)C2C5 [Compound 8, (2′S)-2′-(4,5α-epoxy-3-hydroxy-14β-methoxy-17-methylmorphinan-6β-ylamino)-propionic acid bis(tetrafluoroborate)]
ED50 (rats; [4]): 0.67 µg/kg | analgesic activity (in words) (rats; rat tail flick test): very high analgesic activity | sc/icv (rats): 746 | ED50 (rats; [5]): 500 µg/kg

CCOC(=O)CN[C@@H]1CC[C@@]2(OC)[C@H]3Cc4ccc(O)c5c4[C@@]2(CCN3C)[C@H]1O5 [Compound 23, (4,5α-epoxy-3-hydroxy-14β-methoxy-17-methylmorphinan-6β-ylamino)-acetic acid-ethylester dihydrochloride]
Ki (μ-opioid receptors): 0.8 nM

CO[C@@]12CC[C@H](NCC(=O)O)[C@@H]3Oc4c(O)ccc5c4[C@@]31CCN(C)C2C5 [Compound 3, (4,5α-epoxy-3-hydroxy-14β-methoxy-17-methylmorphinan-6α-ylamino)-acetic acid sesqui(trifluoroacetate)]
ED50 (in vivo): 0.00083 mg/kg | ED50 (in vivo; sc): 1 mg/kg | respiratory depression at analgesic doses (in words) (anaesthetised rats): not able to initiate a respiratory depression | ED50 (rats; [4]): 0.49 µg/kg | passage of the blood-brain barrier (concluded from sc/icv figures) (rats; conclusion from tail flick sc/icv ratio): only overcome the blood-brain barrier in a very restricted manner | Analgesic effect (in percent) after 10 minutes (rats; icv): 46% | Analgesic effect (in percent) after 20 minutes (rats; icv): 62% | Analgesic effect (in percent) after 30 minutes (rats; icv): 59% | Analgesic effect (in percent) after 60 minutes (rats; icv): 100% | Analgesic effect (in percent) after 120 minutes (rats; icv): 100% | Analgesic effect (in percent) after 180 minutes (rats; icv): 90% | analgesic activity (in words) (rats; rat tail flick test): very high analgesic activity | sc/icv (rats): 176 | ED50 (rats; [5]): 86 µg/kg
